The values below are quoted from earlier work in patent US20050197398A1, “Therapeutic agent for hepatic disease” (AJINOMOTO CO., INC, priority 2002, published 2005).

The structures appear in SMILES notation.

In series [1] the test system is D-galactosamine-induced liver failure rat model.
Series [2] deals with rat primary culture hepatocytes. The note with it: D-galactosamine loading.

Regarding `C[C@H](N)C(=O)O` [alanine], in series [1], the liver failure result is reported as “improves liver failure”. For the same compound, the “level of ATP” value in series [1] (ATP becomes lower in liver failure) is on record as “raises the level of ATP”. The “lactic dehydrogenase extracellular overflow” value in series [2] is reported as “suppress an increase of lactic dehydrogenase extracellular overflow”.
